Patent publication US12286437B2, “Cardiac sarcomere inhibitors” (Cytokinetics, Inc., priority 2021, dated 2025)

Experiments:
[1] = test system: bovine cardiac myofibrils; assay: Myofibril assay (ATPase activity of skinned bovine cardiac myofibrils, PK/LDH-coupled); format: biochemical; conditions: inhibition of steady-state ATPase of bovine cardiac myofibrils; CaCl2 for 50% or 75% activation
Method: To evaluate the effect of compounds on the ATPase activity of full-length cardiac myosin in the context of the native sarcomere, skinned myofibril assays were performed. Bovine cardiac myofibrils were obtained by homogenizing bovine cardiac left ventricular tissue in the presence of a detergent such as triton X-100. Such treatment removes membranes and a majority of the soluble cytoplasmic proteins but leaves intact the cardiac sarcomeric acto-myosin apparatus. Myofibril preparations retain the ability to hydrolyze ATP in a Ca^2+ regulated manner. ATPase activities of such myofibril preparations in the presence and absence of compounds were assayed at Ca^2+ concentrations activating to a defined fraction of the maximal rate (i.e., […], 75%). Small molecule agents were assessed for their ability to inhibit the steady-state ATPase activity of bovine cardiac myofibrils using pyruvate kinase and lactate dehydrogenase (PK/LDH)-coupled enzyme system. This assay regenerates myosin-produced ADP into ATP by oxidizing NADH, producing an absorbance change at 340 nm. Prior to testing small molecule agents, the bovine cardiac myofibrils were assessed for their calcium responsiveness and the calcium concentration that achieves either a 50% (pCa50) or 75% (pCa75) activation of the myofibril system was chosen as the final condition for assessing the inhibitory activity of the small molecule agents. All enzymatic activity was measured in a buffered solution containing 12 mM PIPES (piperazine-N,N′-bis(2-ethanesulfonic acid), 2 mM magnesium chloride at pH 6.8 (PM 12 buffer). Final assay conditions were 1 mg/mL of bovine cardiac myofibrils, 4 U/mL pyruvate kinase, 6 U/mL lactate dehydrogenase, 50 μM ATP, 0.1 mg/mL BSA (bovine serum albumin), 10 ppm antifoam, 1 mM DTT, 0.5 mM NADH, 1.5 mM PEP, 0.6 mM EGTA, and an amount of CaCl2 sufficient to achieve either 50% or 75% activation of the myofibril ATPase activity. Results for compounds tested are provided in Table A. Compounds tested were prepared in accordance with the synthetic procedures described herein.

[2] = biological target: T1, CYP2C19 (Homo sapiens, UniProt P33261); assay: Time-dependent inhibition of CYP2C19 in human liver microsomes; format: in vitro ADME; conditions: for (% Activity NADPH T0)/(% Activity NADPH T30): fold change; for activity at 30 min, 25 µM / activity at 0 min, 25 µM / activity at 30 min, 50 µM / activity at 0 min, 50 µM: pooled human liver microsomes, human liver microsomes; for activity at 30 min, 25 µM / activity at 30 min, 50 µM: after 30 minutes incubation, read-out: % Activity NADPH T30; for activity at 0 min, 25 µM / activity at 0 min, 50 µM: time zero, read-out: % Activity NADPH T0
T1 construct: Pooled human microsomes and selective CYP probe substrates were used; from tissue; host or cells: pooled human liver microsomes
T1 sequence (P33261 whole entry): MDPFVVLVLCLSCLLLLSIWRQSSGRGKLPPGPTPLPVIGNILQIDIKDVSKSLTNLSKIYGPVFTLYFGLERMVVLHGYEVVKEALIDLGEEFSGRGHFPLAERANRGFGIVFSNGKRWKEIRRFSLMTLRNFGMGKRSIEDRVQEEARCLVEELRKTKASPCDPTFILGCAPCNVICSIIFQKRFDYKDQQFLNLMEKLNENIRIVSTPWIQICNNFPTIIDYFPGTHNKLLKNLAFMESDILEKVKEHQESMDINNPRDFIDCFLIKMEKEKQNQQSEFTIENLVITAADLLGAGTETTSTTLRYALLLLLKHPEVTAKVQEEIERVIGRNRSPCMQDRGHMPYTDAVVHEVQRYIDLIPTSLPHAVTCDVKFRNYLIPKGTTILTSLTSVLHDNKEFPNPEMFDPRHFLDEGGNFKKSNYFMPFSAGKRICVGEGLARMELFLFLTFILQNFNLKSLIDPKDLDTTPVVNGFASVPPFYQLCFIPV
Method: (§1) An assessment of the time-dependent Inhibitory Potential of the test compounds against Principal Human Cytochrome P450 Isozymes using Human Liver Microsomes was also carried out using standard methods (Grimm et al, Drug Metab. Dispos., July; 37(7):1355-70. doi: 10.1124/dmd.109.026716, 2009). Pooled human microsomes and selective CYP probe substrates were used for in vitro assessment of test compounds at 25 and 50 μM as time-dependent inhibitors of […] human hepatic cytochrome P450 isozymes (CYP1A2, 2B6, 2C9, 2C19, 2D6, and 3A4). LC-MS/MS was used to quantify metabolite formation. The inhibition of each P450 enzyme in human liver microsomes was measured as the percentage decrease in the activity of marker metabolite formation as measured by LC-MS/MS compared to non-inhibited controls (=100% activity) at time zero and after 30 minutes incubation. The occurrence of any time dependent inhibition was then expressed as the fold change in enzyme activity at time zero relative to the activity after 30 minutes incubation.

[3] = biological target: T2, CYP2B6 (Homo sapiens, UniProt P20813); assay: Time-dependent inhibition of CYP2B6 in human liver microsomes; format: in vitro ADME; conditions: for (% Activity NADPH T0)/(% Activity NADPH T30): fold change; for activity at 30 min, 25 µM / activity at 0 min, 25 µM / activity at 30 min, 50 µM / activity at 0 min, 50 µM: pooled human liver microsomes, human liver microsomes; for activity at 30 min, 25 µM / activity at 30 min, 50 µM: after 30 minutes incubation, read-out: % Activity NADPH T30; for activity at 0 min, 25 µM / activity at 0 min, 50 µM: time zero, read-out: % Activity NADPH T0
T2 construct: Pooled human microsomes and selective CYP probe substrates were used; from tissue; host or cells: pooled human liver microsomes
T2 sequence (P20813 1-491): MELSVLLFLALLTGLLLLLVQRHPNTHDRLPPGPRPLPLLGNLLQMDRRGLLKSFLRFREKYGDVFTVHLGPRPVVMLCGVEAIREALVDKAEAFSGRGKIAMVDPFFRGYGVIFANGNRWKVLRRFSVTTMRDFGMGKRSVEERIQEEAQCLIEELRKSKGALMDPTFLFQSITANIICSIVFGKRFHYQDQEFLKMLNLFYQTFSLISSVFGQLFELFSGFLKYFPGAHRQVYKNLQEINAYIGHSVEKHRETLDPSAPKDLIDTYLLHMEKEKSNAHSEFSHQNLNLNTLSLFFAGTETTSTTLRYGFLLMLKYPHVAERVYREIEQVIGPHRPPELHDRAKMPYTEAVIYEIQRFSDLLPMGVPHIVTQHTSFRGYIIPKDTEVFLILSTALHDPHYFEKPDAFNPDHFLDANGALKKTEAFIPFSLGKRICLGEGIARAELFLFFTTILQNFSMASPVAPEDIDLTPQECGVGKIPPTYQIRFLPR
Method: as §1

[4] = biological target: T3, CYP2D6 (Homo sapiens, UniProt P10635); assay: Time-dependent inhibition of CYP2D6 in human liver microsomes; format: in vitro ADME; conditions: for (% Activity NADPH T0)/(% Activity NADPH T30): fold change; for activity at 30 min, 25 µM / activity at 0 min, 25 µM / activity at 30 min, 50 µM / activity at 0 min, 50 µM: pooled human liver microsomes, human liver microsomes; for activity at 30 min, 25 µM / activity at 30 min, 50 µM: after 30 minutes incubation, read-out: % Activity NADPH T30; for activity at 0 min, 25 µM / activity at 0 min, 50 µM: time zero, read-out: % Activity NADPH T0
T3 construct: Pooled human microsomes and selective CYP probe substrates were used; from tissue; host or cells: pooled human liver microsomes
T3 sequence (P10635 whole entry): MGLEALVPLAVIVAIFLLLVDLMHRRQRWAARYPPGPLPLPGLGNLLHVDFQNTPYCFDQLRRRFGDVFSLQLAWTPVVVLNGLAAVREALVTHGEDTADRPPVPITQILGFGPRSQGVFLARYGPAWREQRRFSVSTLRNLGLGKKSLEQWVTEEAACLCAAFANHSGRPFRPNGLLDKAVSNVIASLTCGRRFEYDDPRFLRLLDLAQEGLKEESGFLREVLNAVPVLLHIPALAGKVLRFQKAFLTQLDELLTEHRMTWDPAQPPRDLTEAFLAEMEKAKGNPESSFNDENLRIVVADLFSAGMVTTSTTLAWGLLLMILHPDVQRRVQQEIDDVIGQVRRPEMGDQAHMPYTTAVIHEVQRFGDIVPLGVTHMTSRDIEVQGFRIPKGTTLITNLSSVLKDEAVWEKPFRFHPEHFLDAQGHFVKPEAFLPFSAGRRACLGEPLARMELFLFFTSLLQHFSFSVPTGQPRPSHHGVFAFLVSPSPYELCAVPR
Method: as §1

| CDMF IC15 [1] [µM] | (% Activity NADPH T0)/(% Activity NADPH T30) ([2]; CYP2C19, 25 μM) | (% Activity NADPH T0)/(% Activity NADPH T30) ([2]; CYP2C19, 50 μM) | activity at 30 min, 25 µM ([2]; CYP2C19, 25 μM) [%] | activity at 0 min, 25 µM ([2]; CYP2C19, 25 μM) [%] | activity at 30 min, 50 µM ([2]; CYP2C19, 50 μM) [%] | activity at 0 min, 50 µM ([2]; CYP2C19, 50 μM) [%] | (% Activity NADPH T0)/(% Activity NADPH T30) ([3]; CYP2B6, 25 μM) | (% Activity NADPH T0)/(% Activity NADPH T30) ([3]; CYP2B6, 50 μM) | activity at 30 min, 25 µM ([3]; CYP2B6, 25 μM) [%] | activity at 0 min, 25 µM ([3]; CYP2B6, 25 μM) [%] | activity at 30 min, 50 µM ([3]; CYP2B6, 50 μM) [%] | activity at 0 min, 50 µM ([3]; CYP2B6, 50 μM) [%] | (% Activity NADPH T0)/(% Activity NADPH T30) ([4]; CYP2D6, 25 μM) | (% Activity NADPH T0)/(% Activity NADPH T30) ([4]; CYP2D6, 50 μM) | activity at 30 min, 25 µM ([4]; CYP2D6, 25 μM) [%] | activity at 0 min, 25 µM ([4]; CYP2D6, 25 μM) [%] | activity at 30 min, 50 µM ([4]; CYP2D6, 50 μM) [%] | activity at 0 min, 50 µM ([4]; CYP2D6, 50 μM) [%] | (% Activity NADPH T0)/(% Activity NADPH T30) ([4]; CYP2D6, 50 μM, listed as compound 6) | SMILES |
| --- | --- | --- | --- | --- | --- | --- | --- | --- | --- | --- | --- | --- | --- | --- | --- | --- | --- | --- | --- | --- |
| 1.3 | 0.9 | 1.0 | 99 | 94 | 92 | 93 | 0.9 | 0.9 | 97 | 83 | 100 | 88 | 0.9 | 1.0 | 98 | 92 | 91 | 87 | – | CC(C)N1CC(=O)N(Cc2ccc(Cl)c(F)c2)C2(CN(c3cccnn3)C2)C1=O [Compound 8, 5-(4-chloro-3-fluorobenzyl)-8-isopropyl-2-(pyridazin-3-yl)-2,5,8-triazaspiro[3.5]nonane-6,9-dione] |
| 1.3 | 1.2 | 1.3 | 83 | 101 | 77 | 102 | 1.0 | 1.1 | 78 | 79 | 76 | 83 | 1.1 | 1.1 | 89 | 98 | 84 | 94 | – | C[C@H]1CC[C@H](N2CC(=O)N(Cc3ccc(F)c(F)c3)C3(CN(C(N)=O)C3)C2=O)CC1 [Compound 5, 5-(3,4-difluorobenzyl)-8-((1r,4r)-4-methylcyclohexyl)-6,9-dioxo-2,5,8-triazaspiro[3.5]nonane-2-carboxamide] |
| 2.0 | 1.0 | 0.9 | 108 | 108 | 119 | 113 | 0.9 | 1.1 | 116 | 102 | 81 | 90 | 1.0 | 1.4 | 100 | 96 | 72 | 98 | – | CC(C)N1CC(=O)N(Cc2ccc(C(F)(F)F)cc2)C2(CN(c3cccnn3)C2)C1=O [Compound 13, 8-isopropyl-2-(pyridazin-3-yl)-5-(4-(trifluoromethyl)benzyl)-2,5,8-triazaspiro[3.5]nonane-6,9-dione] |
| 0.8 | 1.0 | 1.0 | 87 | 87 | 83 | 82 | 0.9 | 1.1 | 74 | 70 | 70 | 78 | 0.9 | 0.9 | 88 | 80 | 95 | 87 | – | C[C@H]1CC[C@H](N2CC(=O)N(Cc3ccc(F)c(Cl)c3)C3(CN(C(N)=O)C3)C2=O)CC1 [Compound 7, 5-(3-chloro-4-fluorobenzyl)-8-((1r,4r)-4-methylcyclohexyl)-6,9-dioxo-2,5,8-triazaspiro[3.5]nonane-2-carboxamide] |

More lines, now with the values behind:

| SMILES | CDMF IC15 [1] [µM] | (% Activity NADPH T0)/(% Activity NADPH T30) ([2]; CYP2C19, 25 μM) | (% Activity NADPH T0)/(% Activity NADPH T30) ([2]; CYP2C19, 50 μM) | activity at 30 min, 25 µM ([2]; CYP2C19, 25 μM) [%] | activity at 0 min, 25 µM ([2]; CYP2C19, 25 μM) [%] | activity at 30 min, 50 µM ([2]; CYP2C19, 50 μM) [%] | activity at 0 min, 50 µM ([2]; CYP2C19, 50 μM) [%] | (% Activity NADPH T0)/(% Activity NADPH T30) ([3]; CYP2B6, 25 μM) | (% Activity NADPH T0)/(% Activity NADPH T30) ([3]; CYP2B6, 50 μM) | activity at 30 min, 25 µM ([3]; CYP2B6, 25 μM) [%] | activity at 0 min, 25 µM ([3]; CYP2B6, 25 μM) [%] | activity at 30 min, 50 µM ([3]; CYP2B6, 50 μM) [%] | activity at 0 min, 50 µM ([3]; CYP2B6, 50 μM) [%] | (% Activity NADPH T0)/(% Activity NADPH T30) ([4]; CYP2D6, 25 μM) | (% Activity NADPH T0)/(% Activity NADPH T30) ([4]; CYP2D6, 50 μM) | activity at 30 min, 25 µM ([4]; CYP2D6, 25 μM) [%] | activity at 0 min, 25 µM ([4]; CYP2D6, 25 μM) [%] | activity at 30 min, 50 µM ([4]; CYP2D6, 50 μM) [%] | activity at 0 min, 50 µM ([4]; CYP2D6, 50 μM) [%] | (% Activity NADPH T0)/(% Activity NADPH T30) ([4]; CYP2D6, 50 μM, listed as compound 6) |
| --- | --- | --- | --- | --- | --- | --- | --- | --- | --- | --- | --- | --- | --- | --- | --- | --- | --- | --- | --- | --- |
| Cc1cc(CN2C(=O)CN([C@H]3CC[C@H](C)CC3)C(=O)C23CN(C(N)=O)C3)ccc1F [Compound 6, 5-(4-fluoro-3-methylbenzyl)-8-((1r,4r)-4-methylcyclohexyl)-6,9-dioxo-2,5,8-triazaspiro[3.5]nonane-2-carboxamide] | 1.4 | 1.2 | 1.1 | 89 | 105 | 92 | 100 | 1.1 | 1.1 | 83 | 95 | 77 | 87 | 1.3 | 1.2 | 87 | 112 | 92 | 107 | no change in activity |
| C[C@H]1CC[C@H](N2CC(=O)N(Cc3ccc(Cl)cc3)C3(CN(C(N)=O)C3)C2=O)CC1 [Compound 18, 5-(4-chlorobenzyl)-8-((1r,4r)-4-methylcyclohexyl)-6,9-dioxo-2,5,8-triazaspiro[3.5]nonane-2-carboxamide] | 1.2 | 1.0 | 1.1 | 99 | 103 | 84 | 91 | 0.8 | 0.9 | 103 | 80 | 83 | 76 | 1.0 | 1.1 | 105 | 103 | 91 | 104 | – |
